Data on 15 molecules can be found in ChEMBL document CHEMBL1144299, “Quinazolinethiones and quinazolinediones, novel inhibitors of inosine monophosphate dehydrogenase: synthesis and initial structure-activity relationships” (Bioorg Med Chem Lett, 2005).

For orientation: IC50 means the concentration needed to halve the response being measured. Read a high IC50 as weaker potency in that assay. For orientation: inhibition means the percentage by which the read-out fell short of the control. Read a low inhibition as little suppression.

The first experiment addresses Inosine-5'-monophosphate dehydrogenase 2 (Homo sapiens, UniProt P12268). Nature of the experiment: In vitro inhibitory concentration against inosine-5'-monophosphate dehydrogenase.
In turn, `COc1cc2[nH]c(=O)n(CCN3CCOCC3)c(=O)c2cc1-c1cnco1` yielded an IC50 of 297 nM.
The same measure, in the same setting: the figure for `COc1cc2[nH]c(=S)n(-c3cccnc3)c(=O)c2cc1-c1cnco1` is 1710 nM; for `COc1cc2[nH]c(=S)n(CCCn3ccnc3)c(=O)c2cc1-c1cnco1` it is 22 nM; for `COc1cc2[nH]c(=S)n(CCc3ccccn3)c(=O)c2cc1-c1cnco1` it is 91 nM.
As for `COc1cc2[nH]c(=O)n(CCc3c[nH]cn3)c(=O)c2cc1-c1cnco1`, the IC50 amounted to 47 nM.
In turn, `COc1cc2[nH]c(=S)n(CC(C)(C)C)c(=O)c2cc1-c1cnco1` returned an IC50 of 821 nM.
Regarding `COc1cc2[nH]c(=O)n(C)c(=O)c2cc1-c1cnco1`, the IC50 came to 104 nM.
Consider `COc1cc2[nH]c(=S)n(CCc3ccncc3)c(=O)c2cc1-c1cnco1`, for which the midpoint of inhibition, the IC50, lay at 13 nM.
`COc1cc2[nH]c(=S)n(Cc3ccncc3)c(=O)c2cc1-c1cnco1` showed an IC50 of 100 nM.
On the same count and under the same terms, the figure for `COc1cc2[nH]c(=S)n(C)c(=O)c2cc1-c1cnco1` is 17 nM.
The same measure, in the same setting: the figure for `COc1cc2[nH]c(=S)n(CCN3CCOCC3)c(=O)c2cc1-c1cnco1` is 71 nM.
On the same count and under the same terms, in the case of `COc1cc2[nH]c(=O)n(CCn3ccnc3)c(=O)c2cc1-c1cnco1` it was 86 nM.
`COc1cc2nc(S)nc(O)c2cc1-c1cnco1` came in with an IC50 of 30 nM.
Molecule `COc1cc2[nH]c(=O)n(CCc3ccncc3)c(=O)c2cc1-c1cnco1` had an IC50 of 188 nM.

Tested on in the next experiment: not listed separately
Kind of experiment: In vitro concentration required to inhibit peripheral blood mononuclear cell proliferation; Inactive. The class given is functional.
As for `COc1cc2[nH]c(=O)n(CCc3c[nH]cn3)c(=O)c2cc1-c1cnco1`, the IC50 result is listed as “Not Active”.

Tested on in a further experiment: not listed separately
Nature of the experiment: Percent inhibition of inosine-5'-monophosphate dehydrogenase was determined at 1 uM concentration. The format is functional.
The molecule `COc1cc2[nH]c(=S)n(C(C)C)c(=O)c2cc1-c1cnco1` displayed an inhibition of 27%.

Tested on in the next experiment: not listed separately
Nature of the experiment: In vitro concentration required to inhibit peripheral blood mononuclear cell proliferation was determined. The class given is functional.
`COc1cc2[nH]c(=O)n(CCN3CCOCC3)c(=O)c2cc1-c1cnco1` returned an IC50 of 9130 nM.
Still for that read-out and setting: in the case of `COc1cc2[nH]c(=S)n(CCCn3ccnc3)c(=O)c2cc1-c1cnco1` it was 980 nM.
On the same count and under the same terms, in the case of `COc1cc2[nH]c(=S)n(CCc3ccccn3)c(=O)c2cc1-c1cnco1` it was 1000 nM.
Same read-out and setting: in the case of `COc1cc2[nH]c(=O)n(C)c(=O)c2cc1-c1cnco1` it was 4000 nM.
Molecule `COc1cc2[nH]c(=S)n(CCc3ccncc3)c(=O)c2cc1-c1cnco1` displayed an IC50 of 780 nM.
Regarding `COc1cc2[nH]c(=S)n(Cc3ccncc3)c(=O)c2cc1-c1cnco1`, the IC50 came to 4100 nM.
Still for that read-out and setting: in the case of `COc1cc2[nH]c(=S)n(C)c(=O)c2cc1-c1cnco1` it was 1100 nM; in that of `COc1cc2[nH]c(=S)n(CCN3CCOCC3)c(=O)c2cc1-c1cnco1`, 2760 nM.
Same read-out and setting: the figure for `COc1cc2[nH]c(=O)n(CCn3ccnc3)c(=O)c2cc1-c1cnco1` is 2400 nM; for `COc1cc2[nH]c(=O)n(CCc3ccncc3)c(=O)c2cc1-c1cnco1` it is 1200 nM.
